Results published in US20250332173A1, “COMPOUNDS AND METHODS FOR MODULATING NUCLEIC ACID SPLICING” (REMIX THERAPEUTICS INC., priority 2021, published 2025).
Read-outs that look alike come from different tables or passages of the source.

How the values were obtained:
[1] = test system: Target C; experiment: HiBiT protein abundance assay, Target C (Promega Nano-Glo HiBiT Lytic Detection System, knock-in K562 cell line); type: cell-based, human; details: Homo sapiens, K562, 24 h, HiBiT K562 cell line, 24 hours, top dose 10 μM; read-out: Effect on protein abundance, Target C (IC50 category)
Summary of the method: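 HiBiT knock-in K562 cells (10,000/well) were treated for 24 h at 37 °C with a 10-point 3-fold dilution series, top final concentration 10 μM, DMSO ≤0.25%. Lytic HiBiT luminescence was read, normalized to unmodified K562 and DMSO-treated controls, and IC50 was interpolated from a four-parameter logistic fit.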

[2] = test system: Target C; experiment: RT-qPCR splicing assay panel, Target C canonical junction (CJ) mRNA; type: cell-based, human; details: Homo sapiens; Table 5 panel; canonical junction qPCR; compound concentration having 50% response in CJ decrease; read-out: Target C IC50 (decrease in CJ mRNA levels)
Summary of the method: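 Canonical-junction transcript levels in compound-treated A673 or K562 cells (24 h, up to 10 uM final) were determined from lysates by RT-qPCR with housekeeping-gene normalization.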

[3] = test system: MYB; experiment: HiBiT protein abundance assay, MYB HiBiT K562 cell line; type: cell-based, human; details: HiBiT K562 cell line, 24 hours, top dose 10 μM; read-out: Effect on protein abundance, MYB (IC50 category)
Summary of the method: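 Endogenous targets in K562 knock-in lines carried a HiBiT tag and were treated for 24 h at 37 °C with 10-point 3-fold dilutions (top 10 μM final, DMSO ≤0.25%). Abundance was read as lytic Nano-Glo HiBiT luminescence. IC50 came from a four-parameter logistic fit of normalized response.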

[4] = test system: K562 (human chronic myelogenous leukemia) cells; experiment: Cell Titer Glo 2.0 cell viability assay; type: cell-based; details: K562 cells, 72 hours, Cell Titer Glo 2.0, read-out: K562 GI50

| SMILES | IC50 [1] [µM] | IC50 [2] [µM] | IC50 [3] [µM] | GI50 ([4]; Homo sapiens, K562, 72 h) [µM] | GI50 [4] [µM] |
| --- | --- | --- | --- | --- | --- |
| Cc1cn2cc(-c3ccc4c(=O)n(C5CCN(C)CC5)cnc4c3)nc2c(C)n1 [Compound 302] | 1 to 10 | 1 to 10 | 1 to 10 | 1 to 10 |  |
| CC[C@@H]1C[C@H](n2ncc3cc(-c4cc(C)c5nc(C)cn5n4)ccc3c2=O)CCN1 [Compound 304] | 0.1 to 1 | 1 to 10 | 0.1 to 1 | 0.1 to 1 |  |
| Cc1cc(-c2cnc3c(=O)n(C4CCNCC4)cnc3c2)cc2cn(C)nc12 [Compound 311] | 1 to 10 | 1 to 10 | 1 to 10 | 1 to 10 |  |
| Cn1cc2cc(-c3cc(F)c4c(=O)n(C5CCNCC5)cnc4c3)cc(F)c2n1 [Compound 314] | > 10 | > 10 | 1 to 10 | 1 to 10 |  |
| Cn1cc2cc(-c3cc(F)c4c(=O)n(C5CCNCC5)cnc4c3)cc(C#N)c2n1 [Compound 316] | 0.1 to 1 | 0.1 to 1 | < 0.1 | 0.1 to 1 |  |
| COc1cc(-c2cc(F)c3c(=O)n(C4CCNCC4)cnc3c2)cnn1 [Compound 320] | > 10 | > 10 | > 10 | > 10 |  |
| Cc1cn2cc(-c3cc(F)c4c(=O)n(C5CCNCC5(F)F)cnc4c3)cc(F)c2n1 (stereo not drawn) [Compound 339] | > 10 | > 10 | > 10 | > 10 |  |
| Cc1cn2cc(-c3cc(F)c4c(=O)n(N5CCNCC5)cnc4c3)cc(F)c2n1 [Compound 340, 5-fluoro-7-{8-fluoro-2-methylimidazo[1,2-a]pyridin-6-yl}-3-(piperazin-1-yl)quinazolin-4-one] | 0.1 to 1 | 0.1 to 1 | < 0.1 | 0.1 to 1 |  |
| Cc1cn2cc(-c3cc(F)c4c(=O)n(C5=CCNCC5)cnc4c3)cc(F)c2n1 [Compound 342] | 0.1 to 1 | 0.1 to 1 | 0.1 to 1 | < 0.1 |  |
| Cc1cn2cc(-c3cc(F)c4c(=O)n([C@H]5CCNC[C@@H]5O)cnc4c3)cc(F)c2n1 [Compound 347, 5-fluoro-7-{8-fluoro-2-methylimidazo[1,2-a]pyridin-6-yl}-3-[(3S,4S)-3-hydroxypiperidin-4-yl]quinazolin-4-one] | > 10 | 1 to 10 | 1 to 10 | > 10 |  |
| Cc1cn2nc(-c3cc(F)c4c(=O)n(C5CCNC6(CC6)C5)cnc4c3)cc(C)c2n1 (stereo not drawn) [Compound 351] | < 0.1 | < 0.1 | < 0.1 | 0.1 to 1 |  |
| Cc1cn2cc(-c3cc(F)c4c(=O)n(C5CCCNCC5)cnc4c3)cc(F)c2n1 (stereo not drawn) [Compound 353, 3-(azepan-4-yl)-5-fluoro-7-{8-fluoro-2-methylimidazo[1,2-a]pyridin-6-yl}quinazolin-4-one] | 1 to 10 | 1 to 10 | 0.1 to 1 | 0.1 to 1 |  |
| Cc1ncc(-c2ccc3c(=O)n(C4CCNCC4)cnc3c2)cn1 [Compound 354, 7-(2-methylpyrimidin-5-yl)-3-(piperidin-4-yl)quinazolin-4(3H)-one] | 1 to 10 | 1 to 10 | 1 to 10 | 1 to 10 |  |

Now from value to molecule:

| IC50 [1] [µM] | IC50 [2] [µM] | IC50 [3] [µM] | GI50 ([4]; Homo sapiens, K562, 72 h) [µM] | GI50 [4] [µM] | SMILES |
| --- | --- | --- | --- | --- | --- |
| 1 to 10 | 1 to 10 | 1 to 10 | 1 to 10 |  | Cc1cn2nc(-c3ccc4c(=O)n(C5CCN(C)CC5)cnc4c3)cc2c(C)n1 [Compound 303] |
| 1 to 10 | 1 to 10 | 1 to 10 | 0.1 to 1 |  | Cc1cn2cc(-c3ccc4c(=O)n(C5CCNCC5)cnc4c3)cc(C(F)(F)F)c2n1 [Compound 306] |
| 1 to 10 | 1 to 10 | 1 to 10 | 1 to 10 |  | Cc1cn2cc(-c3ccc4c(=O)n(C5CCN(C)CC5)cnc4c3)ncc2n1 [Compound 308] |
| 0.1 to 1 | 0.1 to 1 | 0.1 to 1 | 1 to 10 |  | Cc1cn2nc(-c3ccc4c(=O)n(C5CCN(C)CC5)ccc4c3)cc(C)c2n1 [Compound 310] |
| < 0.1 | < 0.1 | < 0.1 | 0.1 to 1 |  | Cc1cn2nc(-c3cc(F)c4c(=O)n(C5CCNC6(CC6)C5)ncc4c3)cc(C)c2n1 (stereo not drawn) [Compound 312] |
| 1 to 10 | 1 to 10 | 0.1 to 1 | 1 to 10 |  | Cn1cc2cc(-c3cc(F)c4c(=O)n(C5CCNCC5)cnc4c3)c(F)cc2n1 [Compound 315] |
| 0.1 to 1 | 0.1 to 1 | < 0.1 | 0.1 to 1 |  | Cc1cn2cc(-c3cc(F)c4c(=O)n(C5CCNCC5)cnc4c3)cc(C)c2n1 [Compound 317] |
| 0.1 to 1 | 0.1 to 1 | < 0.1 | 0.1 to 1 |  | Cc1cn2nc(-c3cc(F)c4c(=O)n(C5CCNCC5)cnc4c3)cc2c(C)n1 [Compound 318] |
| 1 to 10 | 1 to 10 | 0.1 to 1 | 0.1 to 1 |  | Cc1cn2cc(-c3cc(F)c4c(=O)n(C5CCNCC5)cnc4c3)nc2c(C)n1 [Compound 319] |
| < 0.1 | < 0.1 | < 0.1 | < 0.1 |  | Cc1cn2nc(-c3cc(F)c4c(=O)n(C5CCNCC5)ccc4c3)cc(C)c2n1 [Compound 322] |
| 1 to 10 | 1 to 10 | 0.1 to 1 | 0.1 to 1 |  | Cc1cn2cc(-c3cc(F)c4c(=O)n([C@H]5CCNC[C@H]5F)cnc4c3)cc(F)c2n1 [Compound 338] |
| > 10 | < 0.1 | > 10 | > 10 |  | Cc1cn2nc(-c3cc(N(C)C)c4c(=O)n(C5CCNC6(CC6)C5)cnc4c3)cc(C)c2n1 (stereo not drawn) [Compound 345] |
| 0.1 to 1 | 0.1 to 1 | < 0.1 | 0.1 to 1 |  | Cc1cn2cc(-c3cc(F)c4c(=O)n([C@H]5CCN[C@H](C)C5)cnc4c3)cc(F)c2n1 [Compound 346, trans-5-fluoro-7-(8-fluoro-2-methylimidazo[1,2-a]pyridin-6-yl)-3-(2-methylpiperidin-4-yl)quina-zolin-4(3H)-one] |
| > 10 | > 10 | > 10 | > 10 |  | Cc1cn2cc(-c3cc(F)c4c(=O)n([C@H]5CNCC[C@@H]5O)cnc4c3)cc(F)c2n1 [Compound 348, 5-fluoro-7-{8-fluoro-2-methylimidazo[1,2-a]pyridin-6-yl}-3-[(3S,4S)-4-hydroxypiperidin-3-yl]quinazolin-4-one] |
| 1 to 10 | 1 to 10 | 0.1 to 1 | 1 to 10 |  | Cc1cn2nc(-c3ccc4c(=O)n([C@H]5CCNC6(CC6)C5)cnc4c3)cc(C)c2n1 [Compound 349, 3-[(7S)-4-azaspiro[2.5]octan-7-yl]-7-{2,8-dimethylimidazo[1,2-b]pyridazin-6-yl}quinazolin-4-one] |
| < 0.1 | 0.1 to 1 | < 0.1 |  | 0.1 to 1 | Cc1cn2nc(-c3ccc4c(=O)n([C@@H]5CCNC6(CC6)C5)cnc4c3)cc(C)c2n1 [Compound 350, 3-[(7R)-4-azaspiro[2.5]octan-7-yl]-7-{2,8-dimethylimidazo[1,2-b]pyridazin-6-yl}quinazolin-4-one] |
| > 10 | > 10 | > 10 | > 10 |  | Cc1cn2cc(-c3cc(F)c4c(=O)n(C5CNCCC5=O)cnc4c3)cc(F)c2n1 (stereo not drawn) [Compound 352, 5-fluoro-7-{8-fluoro-2-methylimidazo[1,2-a]pyridin-6-yl}-3-(4-oxopiperidin-3-yl)quinazolin-4-one] |
